Series [1] has as its target T1, GV sPLA2 (Homo sapiens, UniProt P39877).
T1 sequence (P39877 21-138): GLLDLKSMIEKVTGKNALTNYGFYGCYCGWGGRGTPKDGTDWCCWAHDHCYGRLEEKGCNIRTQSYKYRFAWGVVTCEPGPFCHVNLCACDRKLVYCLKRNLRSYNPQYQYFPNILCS
Nature of the series: In vitro PLA2 mixed micellar assay (modified Dole assay), GV sPLA2. The format is biochemical. The settings on record: at 0.091 mole fraction of inhibitor, n = 3. As to the method: (§1) All the inhibitors synthesized in this work were tested for inhibition of GIVA cPLA2, GVIA iPLA2 and GV sPLA2 using mixed micellar assays. Details for the assays have been published previously. The results of the inhibition are presented in Table 1 using either percent inhibition or XI(50) values. Initially, the percent inhibition of each PLA2 at 0.091 mole fraction of inhibitor was determined. XI(50) values were estimated when the percent inhibition was higher than 90%. The XI(50) is the mole fraction of the inhibitor in the total substrate interface required to inhibit the enzyme by 50%. Data for the reference 2-oxoamide inhibitors AX006 and AX048 are included in Table 1 for comparison. Phospholipase A2 activity was determined using the previously described modified Dole assay with buffer and substrate conditions optimized for each enzyme as described previously: (i) GIVA cPLA2 substrate mixed-micelles were composed of 400 μM Triton […]-labeled PAPC, and 3 μM PIP2 in buffer containing 100 mM HEPES pH 7.5, 90 μM CaCl2, 2 mM DTT and 0.1 mg/ml BSA; (ii) GVI iPLA2 substrate mixed-micelles were composed of either (a) 400 μM Triton X-100, 99 μM DPPC, and 1.5 μM ^14C-labeled DPPC in buffer containing 200 mM HEPES pH 7.0, 1 mM ATP, 2 mM DTT and 0.1 mg/ml BSA or (b) 400 μM Triton X-100, 98.3 μM PAPC, and 1.7 μM ^14C-labeled PAPC in buffer containing 100 mM HEPES pH 7.5, 2 mM ATP and 4 mM DTT; and (iii) GV sPLA2 substrate mixed-micelles were composed of 400 μM Triton X-100, 99 μM DPPC, and 1.5 μM ^14C-labeled DPPC in buffer containing 50 mM Tris pH 8.0 and 5 mM CaCl2. Initial screening of compounds at 0.091 mole fraction inhibitor in mixed-micelles was carried out. Compounds displaying 25% or less inhibition had no inhibitory affect (designated N.D.). The average percent inhibition (and standard error, n=3) for compounds displaying more than 25% and less than 90% enzyme inhibition is reported herein. If the percent inhibition was greater than 90%, then its XI(50) was determined by plotting percent inhibition vs. inhibitor molar fraction (7 points; typically 0.005 to 0.091 mole fraction). Inhibition curves were modeled in Graphpad Prism using either a linear (x, y intercept=0) or non-linear regression (one-site binding model-hyperbola, BMAX=100) to calculate the reported XI(50) and associated error values.

For series [2], the target named is T2, GIVA cPLA2 (Homo sapiens, UniProt P47712).
T2 sequence (P47712 1-749): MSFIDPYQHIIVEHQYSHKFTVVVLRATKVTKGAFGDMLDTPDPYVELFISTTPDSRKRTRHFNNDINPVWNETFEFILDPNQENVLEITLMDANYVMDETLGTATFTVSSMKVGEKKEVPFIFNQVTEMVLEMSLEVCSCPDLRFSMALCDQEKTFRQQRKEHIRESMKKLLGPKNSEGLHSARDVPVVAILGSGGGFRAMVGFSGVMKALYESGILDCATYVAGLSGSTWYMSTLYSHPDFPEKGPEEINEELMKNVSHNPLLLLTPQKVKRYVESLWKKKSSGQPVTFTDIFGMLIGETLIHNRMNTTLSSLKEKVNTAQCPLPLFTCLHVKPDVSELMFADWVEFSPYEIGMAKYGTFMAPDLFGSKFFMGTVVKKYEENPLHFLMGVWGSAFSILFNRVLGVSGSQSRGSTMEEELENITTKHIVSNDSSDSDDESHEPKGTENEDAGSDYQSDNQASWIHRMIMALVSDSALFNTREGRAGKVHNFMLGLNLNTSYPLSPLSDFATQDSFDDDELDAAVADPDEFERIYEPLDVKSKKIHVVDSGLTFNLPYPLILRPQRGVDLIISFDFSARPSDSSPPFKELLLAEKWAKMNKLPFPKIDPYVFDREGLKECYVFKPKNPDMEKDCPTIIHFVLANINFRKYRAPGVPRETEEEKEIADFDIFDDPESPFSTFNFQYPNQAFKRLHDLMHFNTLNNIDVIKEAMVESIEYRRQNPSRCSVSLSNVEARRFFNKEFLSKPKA
Nature of the series: In vitro PLA2 mixed micellar assay (modified Dole assay), GIVA cPLA2. The format is biochemical. The settings on record: for GIVA cPLA2 % inhibition: at 0.091 mole fraction of inhibitor, n = 3; for GIVA cPLA2 X1(50): mixed micelles, mole fraction of inhibitor in total substrate interface required to inhibit the enzyme by 50%. As to the method: as §1

The target in series [3] is T2, GIVA cPLA2. The settings on record: in vitro; inhibitors previously reported; also inhibit GVIA iPLA2 and GV sPLA2; cited from earlier work.
Series [4] has as its system RAW 264.7 macrophages. Put plainly: Inhibition of Kdo2-Lipid A stimulated arachidonic acid release. In kind it is cell-based. The settings on record: for Effect on AA release (in words): 25 μM inhibitor; for Effect on AA release (in words) / IC50: Kdo2-Lipid A; for IC50 / inhibition at 25 µM: Mus musculus; for IC50: RAW264.7, RAW 264.7 cells, half maximal of the maximum inhibition observed; for inhibition at 25 µM: RAW264.7, read-out: AA Release Inhibition (%). The text has this:
Arachidonic acid (AA) is the ideal metabolic indicator of GIVA cPLA2 activity, since it is the product of GIVA cPLA2-mediated catalysis. In addition to some of the new 2-oxoamides based on dipeptides and pseudodipeptides that were synthesized in this work, a series of potent 2-oxoamide in vitro inhibitors of GIVA cPLA2, previously reported by us, were further tested in a cellular ex vivo system to investigate whether they reduced cellular AA production. For this purpose, RAW 264.7 macrophages were preincubated with 25 μM concentrations of the inhibitor prior to treatment of the cells with Kdo2-Lipid A. Subsequently, AA release was quantitated from the supernatants.
RAW 264.7 macrophages were maintained in a humidified atmosphere at 37° C. with 5% CO2, as described elsewhere.^36 The cells were cultured in DMEM media that was supplemented with 10% fetal bovine serum, 2 mM glutamine, 100 units/mL penicillin, 100 μg/ml streptomycin, and non-essential amino acids. The cells were plated at a confluency of 2×10^6 cells per well in 6 well tissue culture plates and allowed to adhere overnight. Inhibitors were added to the medium 30 min before Kdo2-Lipid A was added and the supernatants were collected at 1 hour following stimulation. Subsequently, AA was extracted from the supernatants and quantitated by HPLC-MS, as described elsewhere.^36, 37 AA release levels were normalized to pmol AA release per million cells though DNA quantitation using the Broad Range DNA Quant-Kit (Invitrogen). IC50 values were determined by estimating the concentration of inhibitor required for half maximal inhibition of the maximum inhibition observed with a given inhibitor.

Where [5] appears, read: read-out: IC50 for the inhibition of arachidonic acid release (text).
[6] abbreviates: 25 μM inhibitor preincubated, Kdo2-Lipid A stimulation, RAW 264.7 macrophages.
[7] abbreviates: read-out: IC50 for the inhibition of arachidonic acid release.

Several values for one entry are separate records, joined by “and”; a condition that tells them apart may be missing. Equal values may be shown once. Read-outs that look alike come from different tables or passages of the source.

By melting point is commonly meant the temperature, or range, at which the solid turns liquid. As to `CCCCCCCCCCCCCCC(=O)C(=O)N[C@@H](CCCC)C(=O)NCC(=O)OCC` [Compound 4c, (S)-Ethyl 2-(2-(2-oxohexadecanamido)hexanamido)acetate], the melting point is 63 to 65 °C. Also, in series [1], the “GV sPLA2 % inhibition” value stood at 63%. Moreover, the “GIVA cPLA2 % inhibition” value in series [2] was 73%.

`CCCCCCCCCCCCCCC(=O)C(=O)N[C@@H](CCCC)C(=O)NCC(=O)OC(C)(C)C` [Compound 8a, (S)-tert-Butyl 2-(2-(2-oxohexadecanamido)hexanamido)acetate]: the melting point is 38 to 39 °C. Moreover, in series [1], the “GV sPLA2 % inhibition” value is 59%. In series [2], the “GIVA cPLA2 % inhibition” value is 72%.

Take `CCCCCCCCCCCCCCC(=O)C(=O)N[C@@H](CCCC)COCC(=O)OC(C)(C)C` [Compound 17, (S)-tert-Butyl 2-(2-(2-oxohexadecanamido)hexyloxy)acetate]: in series [1], the “GV sPLA2 % inhibition” value was 57%. Also, the “GIVA cPLA2 % inhibition” value in series [2] turned out to be 44%.

Consider `CCC(=O)C(=O)N[C@@H](C)CCC(=O)OC(C)(C)C` [Compound 31], for which the “Inhibition of GIVA cPLA2 (in words)” value in series [3] was “inhibit GIVA cPLA2 to a high extent, though not selectively”.

By inhibition is commonly meant the drop in the measured response relative to a control, in per cent. The term IC50 denotes the concentration needed to halve the response being measured. The molecule `CCCCCCCCCCCCCCC(=O)C(=O)N[C@@H](CCCC)COCC(=O)O` [Compound 18, (S)-2-(2-(2-oxohexadecanainido)hexyloxy)acetic Acid] came in with a melting point of 64 to 66 °C. In series [1], this molecule displayed an inhibition at 0.091 mole fraction below 25%. For the same molecule, in series [2], the “GIVA cPLA2 X1(50)” value is 0.017 mole fraction and 0.017 ± 0.002 mole fraction. Besides, the “Effect on AA release (in words)” value in series [4] (RAW 264.7 macrophages) is on record as “significant reduction of AA release”. The 50% inhibitory concentration (IC50) in series [4] (setting [5]) was found to be 2 µM. Further, the inhibition at 25 µM in series [4] (setting [6]) came out at 68%.

Turning to `CCC[C@@H](/C=C/C(=O)O)NC(=O)C(=O)CC` [Compound 30], the “Effect on AA release (in words)” value in series [4] (RAW 264.7 macrophages) was “significant reduction of AA release”. Also, the IC50 in series [4] (setting [7]) is 25 µM; in series [4] (setting [5]) it was around 25 µM. In addition, the inhibition at 25 µM in series [4] (setting [6]) came to 74 ± 8%.

For `CCOC(=O)CCCNC(=O)C(=O)CC` [Compound 24], in series [3], the “Inhibition of GIVA cPLA2 (in words)” value is “inhibit GIVA cPLA2 to a high extent, though not selectively”.

On to `CCCCCCCCCCCCCCC(=O)C(=O)N[C@H](C(=O)NCC(=O)O)C(C)C` [Compound 9b, (S)-2-(3-Methyl-2-(2-oxohexadecanamido)butanamido)acetic Acid], for which the melting point lay within 87 to 89 °C. In series [1], this molecule registered an inhibition at 0.091 mole fraction below 25%. Besides, in series [2], the “GIVA cPLA2 X1(50)” value came to 0.061 ± 0.017 mole fraction.

Take `CCC[C@@H](/C=C/C=C/C(=O)O)NC(=O)C(=O)CC` [Compound 28]: the inhibition at 25 µM in series [4] (setting [6]) is 6 ± 10%.

With `CCC(=O)C(=O)NCCCC(=O)O` [Compound 19], the “Effect on AA release (in words)” value in series [4] (RAW 264.7 macrophages) is “significant reduction of AA release”. In addition, the IC50 is 25 µM in series [4] (setting [7]) and around 25 µM in series [4] (setting [5]). For the same molecule, the inhibition at 25 µM in series [4] (setting [6]) came out at 52 ± 5%.

For the molecule `CCC[C@@H](CCCC(=O)O)NC(=O)C(=O)CC` [Compound 35], the “Effect on AA release (in words)” value in series [4] (RAW 264.7 macrophages) is “significant reduction of AA release”. The half-inhibitory concentration (IC50) in series [4] (setting [7]) and in series [4] (setting [5]) was 7 µM each time.

For `CCCCCCCCCCCCCCC(=O)C(=O)N[C@H](C(=O)NCC(=O)OC)C(C)C` [Compound 4b, (S)-Methyl-2-(3-methyl-2-(2-oxohexadecanamido)butanamido)-acetate], the melting point fell in the range of 118 to 119 °C. Further, the inhibition at 0.091 mole fraction in series [1] is below 25%. For the same molecule, the “GIVA cPLA2 % inhibition” value in series [2] was 25%.

For `CCCCCCCCCCCCCCC(=O)C(=O)N[C@@H](CCCC)C(=O)NCC(=O)OC` [Compound 4a, (S)-Methyl 2-(2-(2-oxohexadecanamido)hexanamido)acetate], the melting point lay within 65 to 67 °C. Further, in series [1], the “GV sPLA2 % inhibition” value is on record as 65%. Besides, the “GIVA cPLA2 X1(50)” value in series [2] amounted to 0.021 ± 0.009 mole fraction.

`CCCCCCCCCCCCCCC(=O)C(=O)N[C@@H](CCCC)C(=O)NCC(=O)O` [Compound 9a, (S)-2-(2-(2-Oxohexadecanamido)hexanamido)acetic Acid]: the inhibition at 0.091 mole fraction in series [1] was below 25%. In addition, the “GIVA cPLA2 X1(50)” value in series [2] worked out at 0.035 ± 0.014 mole fraction.

`CCCCCCCCCCCCCCC(=O)C(=O)N[C@H](C(=O)NCC(=O)OC(C)(C)C)C(C)C` [Compound 8b, (S)-tert-Butyl-2-(3-methyl-2-(2-oxohexadecanamido)butanamido)-acetate]: the melting point lay in the range of 58 to 61 °C. Further, the “GIVA cPLA2 X1(50)” value in series [2] is listed as 0.028 ± 0.015 mole fraction. For the same molecule, in series [4] (setting [6]), the “AA Release Inhibition (%)” value was found to be 30 ± 2% and the inhibition at 25 µM worked out at 30%.

`CCCCCCCCCCCCCCC(=O)C(=O)N[C@@H](CCCC)COCC(=O)OCC` [Compound 13, (S)-Ethyl 2-(2-(2-oxohexadecanamido)hexyloxy)acetate] yielded a melting point of 41 to 43 °C. The “GIVA cPLA2 % inhibition” value in series [2] is reported as 52%.

For `CCC(=O)C(=O)N[C@H](CCC(=O)O)CC(C)C` [Compound 25], the “Effect on AA release (in words)” value in series [4] (RAW 264.7 macrophages) is on record as “significant reduction of AA release”. Also, the IC50 in series [4] (setting [7]) was 25 µM; in series [4] (setting [5]), around 25 µM. Moreover, the inhibition at 25 µM in series [4] (setting [6]) is 62 ± 5%.

`CCC[C@@H](CCC(=O)O)NC(=O)C(=O)CC` [Compound 26]: the “Effect on AA release (in words)” value in series [4] (RAW 264.7 macrophages) is “significant reduction of AA release”. In addition, the 50% inhibitory concentration (IC50) in series [4] (setting [7]) is 25 µM; in series [4] (setting [5]), around 25 µM. Further, the inhibition at 25 µM in series [4] (setting [6]) came to 79 ± 0.5%.
